Results on one compound are retold here after publication PMC11434026, “Development and Validation of an LC-MS/MS Assay for the Quantitation of MO-OH-Nap Tropolone in Mouse Plasma: Application to In Vitro and In Vivo Pharmacokinetic Studies” (Molecules, 2024).

Data set [1] is described as follows: In vitro metabolic stability in rat liver microsomes. The format is in vitro ADME. The following applies: RLM. As for the experimental part:
(§1) Metabolic stability was assessed using mouse, rat, and human liver microsomes (XenoTech, LLC, Lenexa, KS, USA) for phase I metabolism. Briefly, A reaction solution was prepared by mixing […] of PBS (100 mM, pH 7.4), 25 µL of microsomal protein (20 mg/mL), MgCl2 (5 µL; 10 mM), and 50 µL of NADPH (2 mM). The final volume (0.5 mL) was pre-incubated for 10 min in a 37 °C water bath at 60 rpm. An aliquot of MO-OH-Nap (2 µL from 1 µg/mL stock) was spiked into the above solution to initiate the reaction. Aliquots of (50 µL) were collected at time intervals (0, 5, 15, 20, 30, 45, and 60 min) and quenched with 300 µL of ACN, […]. Afterwards, 10 µL of IS stock (1.0 µg/mL) was spiked in each sample then vortexed (5 min) and centrifuged at 10,800 rpm (13,000× g) for 15 min. Samples were vortexed and centrifuged at 10,800 rpm (13,000× g) for 15 min, the supernatant was collected and transferred to an HPLC vial and 10 µL were injected into the LC-MS/MS system. Testosterone and diclofenac were used as positive and negative controls to ensure that liver microsomes and incubation conditions were appropriate for conducting metabolism studies.
On the technique in general: Liver microsomes are vesicles of endoplasmic reticulum, rich in cytochrome P450 enzymes.

Data set [2] in a line: Blood to plasma ratio (B/P) in fresh mouse blood. Type of data set: in vitro ADME. Conditions: 1 µM, 37 °C. As for the experimental part:
Fresh mouse blood (800 µL) was incubated in a water bath maintained at 37 °C for 10 min prior to drug spiking. Blood was spiked with the drug at concentrations of 1 µM to maintain organic content < 1%. Aliquots of 50 µL were collected at different time points (0, 30, and 60 min) for blood analysis as well an additional sample of 120 µL was collected into a micro-centrifuge tube and centrifuged at 4000× g for 10 min at 4 °C to separate 50 µL plasma for analysis. For matrix match and calibration, blank plasma of 50 µL was added to the collected blood aliquot, and 50 µL of blank blood was added to the extract of 50 µL plasma. The whole blood and plasma samples were further processed by PPT as described above. The analyte peak area ratios were used to calculate the (B/P) ratio using Equation (5). (5) (B/P) ratio=Blood Concentration /Plasma Concentration

For another data set, the system named is mouse plasma proteins. The data set is described as follows: Plasma protein binding by Rapid Equilibrium Dialysis (RED). The format is in vitro ADME. The following applies: for % Drug Remaining at 5 h ± SD: 37 °C; for Equilibrium at 5 h ± SD: receiver/donor concentration; for % Plasma Protein Bound ± SD: mouse plasma; for % Drug Remaining at 5 h ± SD / % Plasma Protein Bound ± SD: 5 h. As for the experimental part:
[…] The RED Kit represents 90 wells with two chambers at each well (red chamber for plasma and white buffer chamber separated by Teflon base plate. Prior to the experiments, RED kit was rinsed with 10% ethanol for 10 min and left to dryness. Also, mouse plasma was centrifuged at 2200 rpm (540× g) for 5 min and adjusted to pH […] with lactic acid. In brief, MO-OH-Nap spiked plasma samples (300 µL) were added in red chamber. The buffer chamber contained […] of Phosphate-buffered saline (100 mM, pH 7.4), which contained 100 mM sodium phosphate (Na3PO4) and 150 mM NaCl. The RED kit plate was covered with sealing tape and incubated at 37 °C on an orbital shaker at 300 rpm for 5 h. Aliquot of 50 µL were collected from both chambers, then mixed with equal amount of buffer or blank plasma, consecutively, for analysis. The samples were then processed using PPT extraction technique, as per described in the Section 4.4, and analyzed by LC-MS/MS.
Additionally, the plasma stability and the non-specific binding potential of MO-OH-Nap to the RED kit dialysis membrane were determined separately at the same time from the remaining plasma samples spiked with MO-OH-Nap.
Stability and non-specific binding were assessed by collecting samples at 0 h and 5 h of spiked MO-OH-Nap […] that was incubated in the same PPB condition for 5 h. The two samples were then analyzed by LC-MS/MS and the concentration was then compared between the two time points. The stability, equilibrium, device recovery, and PPB in plasma were calculated using the following equations:(6) % Drug Bound=Concentrationdonor cell−Conentrationreceiver cell/Concentrationdonor cell×100 (7) % Device Recovery=Concentrationreceiver cell+Concentrationdonor cell/Concentration5 h×100 (8) % Remaining at 5 h=Concentration5 h/Concentration0 h×100 (9) Equilibrium at 5 h=Concentrationreceiver cell/Concentrationdonor cell
(In general: In equilibrium dialysis only unbound substance equilibrates across the membrane.)

A short description of data set [3]: In vitro metabolic stability in mouse liver microsomes. Conditions: MLM. The format is in vitro ADME. As for the experimental part: as §1
Data set [4] can be described thus: Tissue distribution after single IP dose in CD-1 mice. The format is in vivo, mouse. The following applies: for concentration at 2 h: female, CD-1, mouse, 2 h after single IP 5 mg/kg. As for the experimental part:
MO-OH-Nap was dissolved in a 5% DMSO, 45% w/v hydroxypropyl-β-cyclodextrin solution in PBS (final concentration 0.625 mg/mL MO-OH-Nap). MO-OH-Nap (5 mg/kg) was administered IP. After dosing, approximately 100 µL of blood was collected in Lithium-Heparin-Microvette 300 µL Capillary Blood Collection Tube (SARSTEDT AG& Co., Nümbrecht, Germany) from the maxillary vein at 5, 15, 30 min and 1, 2, 4, 6, 8, 24, and 48 h. Two blood time points were collected from every mouse and the third time point was the terminal time point, for a total of three time points from each mouse (5 mice/group/per time point). Blood was centrifuged at 4000× g at 4 °C for 10 min to extract plasma. The collected plasma samples were stored at −80 °C until analysis. The specified tissues including liver, lungs, kidney, spleen, heart, and brain were collected at terminal times of 2, 8, 24 and 48 h after dosing. Tissue samples were rinsed with PBS to remove excess blood and blotted with filter paper. After weighing, each tissue sample was individually homogenized with de-ionized water using a TissueLyser II (Qiagen Science, Louisville, KY, USA). A dilution factor of five was used for liver, spleen, brain, lungs, and kidney while the heart was homogenized at a 6-fold dilution factor. All tissues were stored at −80 °C until analysis. Plasma concentrations (ng/mL) and tissue concentrations (ng/g) were determined for each time point collected using LC-MS/MS analysis.

Data set [5] in a line: In vitro metabolic stability in human liver microsomes. The format is in vitro ADME. The following applies: HLM. As for the experimental part:
as §1

Like-named read-outs stand apart in the source and are kept apart here.

For `O=c1c(O)ccccc1-c1ccc2ccccc2c1` [MO-OH-Nap, MO-OH-Nap tropolone], the metabolic depletion in data set [1] (NADPH, 60 min) was below 15%; in data set [3] (NADPH, 60 min) it was below 15%; in data set [5] (NADPH, 60 min), below 15%. The parent drug remaining in data set [1] (all time points to 60 min), in data set [3] (all time points to 60 min) and in data set [5] (all time points to 60 min) was above 95% throughout. In addition, the “B/P Ratio” value in data set [2] (0 min) is 1.1 ± 0.1; in data set [2] (30 min), 0.9 ± 0.2; in data set [2] (60 min) it was 1.0 ± 0.12. Further, the “% Drug Remaining at 5 h ± SD” value is 105.6 ± 0.8% in the data set on mouse plasma proteins (1 µg/mL) and 91.1 ± 2.5% with mouse plasma proteins (10 µg/mL). The “Equilibrium at 5 h ± SD” value in the data set with mouse plasma proteins (1 µg/mL) is recorded as 0.3 ± 0.5; in the data set on mouse plasma proteins (10 µg/mL), 0.1 ± 0.00. The “% Plasma Protein Bound ± SD” value in the data set with mouse plasma proteins (1 µg/mL) was 99.6 ± 0.1%; in the data set with mouse plasma proteins (10 µg/mL), 99.7 ± 0.1%. For the same compound, in data set [4] (48 h after single IP 5 mg/kg), the “detection in all harvested tissue” value is given as “detected”. In addition, the concentration at 2 h stood at 51 ng/g in data set [4] (brain, read-out: tissue concentration, brain); 115 ng/g in data set [4] (heart, read-out: tissue concentration, heart); 750 ng/g in data set [4] (kidney, read-out: tissue concentration, kidney); 1390 ng/g in data set [4] (liver, read-out: tissue concentration, liver); 181 ng/g in data set [4] (lungs, read-out: tissue concentration, lungs); 745 ng/g in data set [4] (spleen, read-out: tissue concentration, spleen).
